According to PubChem BioAssay (NCI):
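Assay format: 96-well plates, 48-hour exposure. The concentration for full growth arrest is given as TGI.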

What was measured:
Assay in all cases: NCI anticancer screen, dose series, 48 h
A498 renal = tested on: A498 renal
KM20L2 colon = tested on: KM20L2 colon
DMS 114 small cell lung = tested on: DMS 114 small cell lung
M19-MEL melanoma = tested on: M19-MEL melanoma
DLD-1 colon = tested on: DLD-1 colon
LXFL 529 NSCLC = tested on: LXFL 529 NSCLC
HOP-18 NSCLC = tested on: HOP-18 NSCLC
XF 498 CNS = tested on: XF 498 CNS
DMS 273 small cell lung = tested on: DMS 273 small cell lung
RXF-631 renal = tested on: RXF-631 renal
SNB-78 CNS = tested on: SNB-78 CNS

Compound | TGI (A498 renal) [µM] | TGI (KM20L2 colon) [µM] | TGI (M19-MEL melanoma) [µM] | TGI (DLD-1 colon) [µM] | TGI (LXFL 529 NSCLC) [µM] | TGI (DMS 273 small cell lung) [µM] | also measured
O=C1NC(=O)C(c2c[nH]c3cc(Br)ccc23)=C1c1cn(C(c2ccccc2)(c2ccccc2)c2ccccc2)cn1 | 37.2 |  |  |  |  |  | 
COc1cccc(OC)c1/C=C1\OC(=O)c2cccc(OC)c21 | 32.3 |  |  |  |  |  | 
Cc1ccc2nc(-c3ccc(N)c(I)c3)sc2c1 | 56 |  |  |  |  |  | 
CC1=NC(=Cc2ccc(O)cc2)C(=O)N1n1c(-c2ccccc2)nc2ccccc2c1=O | > 100 |  |  |  |  |  | 
O=C1c2cc3c(cc2CC12Cc1cc4c(cc1C2=O)CCC4)CCCC3 (stereo not drawn) | > 100 |  |  |  |  |  | 
COc1cc2c(cc1OC)C(O)[C@H](Br)C(C)(C)O2 (stereo partly drawn) |  | > 100 | > 100 | > 100 | > 100 | > 100 | TGI (DMS 114 small cell lung): > 100 µM; TGI (HOP-18 NSCLC): > 100 µM; TGI (XF 498 CNS): > 100 µM
Cc1cccc(NC(=O)/C=C/c2ccc(N(CCC#N)CCC#N)cc2C)c1 | > 100 | > 100 | > 100 | > 100 | > 100 | > 100 | TGI (DMS 114 small cell lung): > 100 µM; TGI (RXF-631 renal): > 100 µM; TGI (XF 498 CNS): > 100 µM
Clc1ccc(-c2c(C3=NCCN3)nnn2-c2ccc(Cl)cc2)cc1 | 38.4 | 32.7 | 30.5 | > 100 | 95.4 | > 100 | TGI (DMS 114 small cell lung): 31.5 µM; TGI (SNB-78 CNS): 61.7 µM; TGI (HOP-18 NSCLC): > 100 µM; TGI (XF 498 CNS): 29.5 µM
O=C(NCCCNC(=O)c1ccc2c(O)c(O)ccc2c1)c1ccc2c(O)c(O)ccc2c1 | 98 |  |  |  |  |  | 
CC1(C)OCC2OC3(c4nc(C#N)c(N)o4)OC(C)(C)OC3C2O1 (stereo not drawn) | > 100 |  |  |  |  |  | 
O=c1cc(-c2ccccc2)[nH]c2cc3c(cc12)OCO3 | 63.1 | 12.2 | > 100 | > 100 | > 100 | 84.9 | TGI (SNB-78 CNS): > 78.8 µM; TGI (HOP-18 NSCLC): > 100 µM; TGI (RXF-631 renal): > 100 µM; TGI (XF 498 CNS): > 67.2 µM
O=[N+]([O-])c1ccc(-n2nnc(C3=NCCCN3)c2-c2ccc(Cl)cc2)cc1 | > 100 | > 100 | > 100 | > 100 | > 100 | > 100 | TGI (SNB-78 CNS): > 100 µM; TGI (HOP-18 NSCLC): > 100 µM; TGI (XF 498 CNS): > 100 µM
CCN(CC)CCn1nc(N)c2nc3cc(Cl)ccc3nc21 | > 100 |  |  |  |  |  | 
Cc1cccc2c1[C@]13OC(C)[C@]4(C)CC5OC(=O)[C@@]1(C)[C@@H]5[C@]34C(=O)O2 (stereo partly drawn) | > 100 |  |  |  |  |  | 
O=C1/C(=C\c2ccc([N+](=O)[O-])o2)SC2N=C(COc3ccc(Cl)cc3)NN12 (stereo not drawn) | 44.3 |  |  |  |  |  | 
N#C/C(=C\c1ccc(O)c(O)c1)C(N)=O | > 100 | > 100 | > 100 | > 100 | > 100 | > 100 | TGI (DMS 114 small cell lung): > 100 µM; TGI (SNB-78 CNS): > 100 µM; TGI (RXF-631 renal): > 100 µM
COc1cccc(CCn2c(N)c(-c3ccccc3)c3ccc([N+](=O)[O-])cc3c2=O)c1 | 5.34 |  |  |  |  |  | 
O=C(O)c1ccc(NNc2cc(=O)[nH]c(=O)[nH]2)cc1 | > 100 |  |  |  |  |  | 
O=C(O)c1nc(-c2ccccn2)c(-c2ccccn2)nc1C(=O)O | 4.12 |  |  |  |  |  | 

Compound | TGI (A498 renal) [µM] | TGI (KM20L2 colon) [µM] | TGI (M19-MEL melanoma) [µM] | TGI (DLD-1 colon) [µM] | TGI (LXFL 529 NSCLC) [µM] | TGI (DMS 273 small cell lung) [µM] | also measured
CCOC(=O)C1=C(Nc2cccc(OC)c2)OCC1=O | > 100 |  |  |  |  |  | 
Nc1ccc(C(=O)NN2C(=O)C(Cl)C2c2ccccc2Cl)cc1 (stereo not drawn) |  | 29.9 | 20.5 | 23 | 5.23 | 12 | TGI (DMS 114 small cell lung): 18.8 µM; TGI (SNB-78 CNS): 33 µM; TGI (HOP-18 NSCLC): 8.87 µM; TGI (XF 498 CNS): 31.5 µM
COc1ccc2c(c1)CCc1c-2[nH]c2ccc(OC)cc12 | > 100 |  |  |  |  |  | 
Cc1ccc2c(c1CCCC(C)(C)O)C(=O)C(=O)C(C(C)C)=C2O | > 100 | > 100 | > 100 | > 100 | > 100 | > 100 | TGI (DMS 114 small cell lung): > 100 µM; TGI (HOP-18 NSCLC): > 100 µM
CCOC(=O)c1nc2c(Cl)c3ncccc3cc2[nH]c1=O | > 100 |  |  |  |  |  | 
COc1ccccc1NC(=O)C1=C(C)NC(C)=C(C(=O)Nc2ccccc2OC)C1c1ccc([N+](=O)[O-])cc1 | > 100 | > 100 |  | > 100 | > 100 | > 100 | TGI (DMS 114 small cell lung): > 100 µM; TGI (SNB-78 CNS): > 100 µM; TGI (HOP-18 NSCLC): > 100 µM; TGI (RXF-631 renal): > 100 µM; TGI (XF 498 CNS): 33.7 µM
C/C(=N\Nc1cc(CN2CCCC2)c(-c2ccc(Cl)cc2)nn1)C(=O)O | > 100 |  |  |  |  |  | 
Cc1cn2c(=O)c3ccccc3nc2s1 | > 100 | > 100 | > 100 | > 100 | > 100 | > 100 | TGI (DMS 114 small cell lung): > 100 µM; TGI (SNB-78 CNS): > 100 µM
COC(=O)C12C3C4C5(C(=O)OC)C(C1C35C(=O)N(C(C)C)C(C)C)C42C(=O)N(C(C)C)C(C)C (stereo not drawn) | > 50 | > 50 | > 50 | > 38.4 | > 50 | > 50 | TGI (DMS 114 small cell lung): > 50 µM; TGI (SNB-78 CNS): > 50 µM; TGI (HOP-18 NSCLC): > 50 µM
COc1ccc2c(c1C)C(=O)C(O)(CC=C(C)C)O2 (stereo not drawn) | > 100 |  |  |  |  |  | 
O=C(CCC/C(CC(=O)c1ccc(Br)cc1)=N\O)Nc1ccccc1 |  | > 100 | > 100 | > 100 | > 100 |  | TGI (DMS 114 small cell lung): > 100 µM; TGI (SNB-78 CNS): > 100 µM; TGI (HOP-18 NSCLC): > 100 µM; TGI (XF 498 CNS): > 100 µM
CC(=O)N(C(=O)CC(=O)N/N=C\c1ccc(Br)c(N(CCC#N)CCC#N)c1)c1ccc(Cl)cc1 | > 100 |  |  |  |  |  | 
C=CCN1C[C@H](C)N([C@H](c2ccc(C(=O)N(CC)CCO)cc2)c2cccc(OC)c2)C[C@H]1C | > 100 |  |  |  |  |  | 
COc1cc(/C=C2\C[C@H]3[C@@H]4CC=C5C[C@@H](O)CC[C@]5(C)[C@H]4CC[C@]3(C)C2=O)cc(OC)c1OC | > 100 |  |  |  |  |  | 
CCC1OC2C(CC=C(C)C)=C3OC(C)(O)C(C)(CC)C(OC(=O)c4ccccc4)C3=C3OC(=O)C=C1C32 (stereo not drawn) | > 100 |  |  |  |  |  | 
CC1=C(C(N)=O)C(c2ccncc2)C(C#N)=C2SCC(=O)N12 (stereo not drawn) | > 100 |  |  |  |  |  | 
CCN1c2nc3ccccc3nc2N(CC)c2nc3ccccc3nc21 | > 100 |  |  |  |  |  | 
C#CCn1ncc2c(SCc3ccccc3)ncnc21 | > 100 |  |  |  |  |  | 
O=C(CN1CCCCC1)N1CCc2c([nH]c3ccccc23)C1c1cccnc1 (stereo not drawn) | > 100 | > 100 | > 100 | > 100 | > 100 | > 100 | TGI (DMS 114 small cell lung): > 100 µM; TGI (SNB-78 CNS): > 100 µM; TGI (HOP-18 NSCLC): > 100 µM; TGI (RXF-631 renal): > 100 µM; TGI (XF 498 CNS): > 100 µM
